Measurements published in ChEMBL document CHEMBL1201862, “PubChem BioAssay data set” (2004).
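1) Cells in 96-well plates. 2) Compound, 48 h, 5 concentrations. 3) Linear interpolation between surrounding doses. 4) Unreached endpoint = highest concentration. At the GI50, growth is halved.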 The source made the active and inactive calls. Rule as the data show it: active = GI50 up to about 1.1 µM and inactive = higher.

Tests used:
Assay in all cases: inhibition of tumour cell growth, NCI panel, 48 h
SF-268 = system: SF-268
EKVX = system: EKVX
TK-10 = system: TK-10
ACHN = system: ACHN
T47D = system: T47D
HOP-62 = system: HOP-62
CAKI-1 = system: CAKI-1
KM12 = system: KM12
K562 = system: K562
HL-60 = system: HL-60
A549 = system: A549
MDA-MB-435 = system: MDA-MB-435
NCI-H460 = system: NCI-H460
SNB-19 = system: SNB-19
MCF7 = system: MCF7
SF-295 = system: SF-295
NCI-H226 = system: NCI-H226
MDA-MB-231 = system: MDA-MB-231
UACC-62 = system: UACC-62
COLO 205 = system: COLO 205
SK-OV-3 = system: SK-OV-3
SK-MEL-2 = system: SK-MEL-2
SN12C = system: SN12C
NCI-H522 = system: NCI-H522
PC-3 = system: PC-3
SNB-75 = system: SNB-75
786-0 = system: 786-0
DU-145 = system: DU-145
OVCAR-3 = system: OVCAR-3
SW-620 = system: SW-620
Malme-3M = system: Malme-3M
UACC-257 = system: UACC-257
BT-549 = system: BT-549
HCT-116 = system: HCT-116
OVCAR-5 = system: OVCAR-5
RXF 393 = system: RXF 393
Hs-578T = system: Hs-578T
SF-539 = system: SF-539
HCT-15 = system: HCT-15
NCI-H23 = system: NCI-H23
NCI/ADR-RES = system: NCI/ADR-RES
M14 = system: M14
SK-MEL-28 = system: SK-MEL-28
MDA-N = system: MDA-N
SK-MEL-5 = system: SK-MEL-5
SR = system: SR
LOX IMVI = system: LOX IMVI
U-251 = system: U-251
MOLT-4 = system: MOLT-4
HT-29 = system: HT-29
IGROV-1 = system: IGROV-1
HOP-92 = system: HOP-92
HCC 2998 = system: HCC 2998
OVCAR-4 = system: OVCAR-4
RPMI-8226 = system: RPMI-8226
CCRF-CEM = system: CCRF-CEM
OVCAR-8 = system: OVCAR-8
A498 = system: A498
UO-31 = system: UO-31

Measured: GI50

CC12OC(=O)[C@@]3(O)CCC4C(C[C@H]5O[C@]56CC=CC(=O)[C@]46C)C45OC[C@H]6C(=O)O[C@@H]1C[C@@]6(C)[C@H](C4=O)C23O5 (stereo not given in full)
0.977 µM: HCT-15
active: SF-268 0.309 µM | TK-10 1 µM | K562 0.53 µM | HL-60 0.121 µM | MCF7 0.578 µM | MDA-MB-231 0.885 µM | UACC-62 0.971 µM | COLO 205 0.601 µM | SN12C 0.953 µM | NCI-H522 0.269 µM | 786-0 0.659 µM | OVCAR-3 0.676 µM | SW-620 0.671 µM | BT-549 0.818 µM | RXF 393 0.39 µM | SF-539 0.252 µM | NCI-H23 0.746 µM | SK-MEL-28 0.394 µM | SR 0.392 µM | MOLT-4 0.673 µM | RPMI-8226 0.308 µM | CCRF-CEM 0.233 µM | OVCAR-8 0.955 µM
inactive: EKVX 3.28 µM | ACHN 1.84 µM | T47D 1.36 µM | HOP-62 2.57 µM | CAKI-1 2.64 µM | KM12 1.85 µM | A549 3.83 µM | MDA-MB-435 1.42 µM | NCI-H460 1.94 µM | SNB-19 3.85 µM | SF-295 4.25 µM | NCI-H226 2.7 µM | SK-OV-3 5.53 µM | SK-MEL-2 3.01 µM | PC-3 3.13 µM | SNB-75 6.79 µM | DU-145 2.56 µM | Malme-3M 1.36 µM | UACC-257 1.32 µM | HCT-116 1.33 µM | OVCAR-5 3.34 µM | Hs-578T 5.47 µM | NCI/ADR-RES 8.51 µM | M14 1.57 µM | MDA-N 3.4 µM | SK-MEL-5 1.53 µM | LOX IMVI 1.63 µM | U-251 1.99 µM | HT-29 2.11 µM | IGROV-1 1.24 µM | HOP-92 2.11 µM | HCC 2998 3.12 µM | OVCAR-4 2.01 µM

C=CCN(c1cc(OC)c2c(c1[N+](=O)[O-])C(C)(SC)C(=O)N2)S(C)(=O)=O (stereo not given)
inactive: SF-268 83.6 µM | TK-10 50.5 µM | ACHN > 100 µM | T47D > 100 µM | CAKI-1 > 100 µM | KM12 > 100 µM | K562 > 100 µM | A549 > 100 µM | MDA-MB-435 > 100 µM | NCI-H460 > 100 µM | A498 > 100 µM | SNB-19 96.6 µM | MCF7 > 100 µM | SF-295 77.1 µM | NCI-H226 > 100 µM | MDA-MB-231 > 100 µM | UACC-62 71.4 µM | COLO 205 > 100 µM | SK-OV-3 > 100 µM | SK-MEL-2 > 100 µM | SN12C > 100 µM | NCI-H522 82.2 µM | PC-3 > 100 µM | UO-31 > 100 µM | SNB-75 91.6 µM | 786-0 87.7 µM | DU-145 > 100 µM | SW-620 > 100 µM | Malme-3M 97.5 µM | UACC-257 > 100 µM | BT-549 > 100 µM | HCT-116 > 100 µM | Hs-578T 55.5 µM | SF-539 > 100 µM | NCI-H23 > 100 µM | NCI/ADR-RES > 100 µM | SK-MEL-28 > 100 µM | MDA-N > 100 µM | SK-MEL-5 > 100 µM | SR 31.8 µM | LOX IMVI > 100 µM | U-251 > 100 µM | HT-29 > 100 µM | IGROV-1 > 100 µM | HOP-92 32.5 µM | HCC 2998 65.5 µM | OVCAR-4 47.8 µM | RPMI-8226 94 µM | OVCAR-8 > 100 µM
> 100 µM: HCT-15

O=C1C([N-]S(=O)(=O)c2ccccc2)=C([n+]2ccc(Cc3ccccc3)cc2)C(=O)c2ccccc21
1.69 µM: HCT-15
inactive: SF-268 1.71 µM | EKVX 1.76 µM | TK-10 1.66 µM | ACHN 1.79 µM | T47D 3.46 µM | HOP-62 1.75 µM | CAKI-1 1.73 µM | KM12 1.89 µM | HL-60 1.38 µM | A549 1.92 µM | SNB-19 1.71 µM | SF-295 1.79 µM | NCI-H226 1.67 µM | MDA-MB-231 2.56 µM | UACC-62 1.15 µM | SK-OV-3 6.12 µM | SK-MEL-2 1.5 µM | SN12C 1.7 µM | PC-3 2.21 µM | UO-31 2.13 µM | SNB-75 1.31 µM | 786-0 1.73 µM | DU-145 1.53 µM | UACC-257 1.22 µM | BT-549 1.36 µM | OVCAR-5 2.03 µM | RXF 393 2.31 µM | Hs-578T 2.19 µM | SF-539 1.79 µM | NCI/ADR-RES 2.83 µM | M14 1.32 µM | SR 2.59 µM | U-251 1.85 µM | MOLT-4 1.81 µM | IGROV-1 1.79 µM | HOP-92 2.72 µM | HCC 2998 1.2 µM | OVCAR-4 1.56 µM | RPMI-8226 1.65 µM | CCRF-CEM 29.7 µM | OVCAR-8 2.04 µM
active: K562 0.359 µM | MDA-MB-435 0.18 µM | NCI-H460 0.535 µM | MCF7 0.435 µM | COLO 205 0.0644 µM | NCI-H522 0.614 µM | OVCAR-3 0.142 µM | SW-620 0.641 µM | Malme-3M 0.376 µM | HCT-116 0.91 µM | NCI-H23 0.284 µM | SK-MEL-28 0.859 µM | MDA-N 0.191 µM | SK-MEL-5 0.145 µM | LOX IMVI 0.424 µM | HT-29 0.263 µM
